Laboratory results: US20150087627A1, “COMBINATION OF KINASE INHIBITORS AND USES THEREOF” (Intellikine LLC, priority 2011, published 2015)
pIC50: −log10 of the molar value. Read-outs that look alike come from different tables or passages of the source.

Tests used:
Assay type in all cases: biochemical
PI3K α (p110α/p85α) = biological target: T1, PI3K α (p110α/p85α) (Homo sapiens, UniProt P42336); test: PI 3-Kinase (human) HTRF assay, PI3K α; details: read-out: PI3K α IC50
T1 construct: purchased Upstate / Millipore Corporation
T1 sequence (P42336 whole entry): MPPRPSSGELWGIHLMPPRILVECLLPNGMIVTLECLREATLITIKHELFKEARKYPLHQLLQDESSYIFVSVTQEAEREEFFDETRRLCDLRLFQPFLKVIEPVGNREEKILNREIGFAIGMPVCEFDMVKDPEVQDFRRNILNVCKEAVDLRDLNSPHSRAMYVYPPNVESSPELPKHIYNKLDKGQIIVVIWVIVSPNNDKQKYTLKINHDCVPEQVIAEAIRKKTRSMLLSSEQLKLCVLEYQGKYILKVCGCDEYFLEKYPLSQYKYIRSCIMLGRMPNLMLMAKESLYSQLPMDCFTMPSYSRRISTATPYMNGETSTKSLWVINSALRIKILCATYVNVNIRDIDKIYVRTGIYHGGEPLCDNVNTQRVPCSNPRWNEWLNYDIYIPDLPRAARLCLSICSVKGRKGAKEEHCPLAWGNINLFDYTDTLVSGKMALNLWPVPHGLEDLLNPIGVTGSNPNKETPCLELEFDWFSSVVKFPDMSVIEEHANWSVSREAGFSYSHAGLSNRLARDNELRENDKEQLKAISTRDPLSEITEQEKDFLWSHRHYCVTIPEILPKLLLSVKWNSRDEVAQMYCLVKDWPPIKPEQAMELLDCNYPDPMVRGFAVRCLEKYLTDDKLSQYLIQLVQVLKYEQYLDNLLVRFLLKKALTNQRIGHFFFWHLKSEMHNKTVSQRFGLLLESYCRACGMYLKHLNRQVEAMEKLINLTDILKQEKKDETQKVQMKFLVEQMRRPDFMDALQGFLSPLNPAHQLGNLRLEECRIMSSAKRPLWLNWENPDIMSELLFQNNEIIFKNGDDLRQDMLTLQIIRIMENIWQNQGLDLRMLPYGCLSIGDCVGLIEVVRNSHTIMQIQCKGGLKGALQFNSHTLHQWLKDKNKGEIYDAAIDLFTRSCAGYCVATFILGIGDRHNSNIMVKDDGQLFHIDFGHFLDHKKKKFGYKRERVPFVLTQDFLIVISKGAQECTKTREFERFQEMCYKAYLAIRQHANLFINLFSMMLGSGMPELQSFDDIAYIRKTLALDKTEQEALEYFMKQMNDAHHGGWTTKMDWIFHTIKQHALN
T1 sequence (P27986 whole entry partner): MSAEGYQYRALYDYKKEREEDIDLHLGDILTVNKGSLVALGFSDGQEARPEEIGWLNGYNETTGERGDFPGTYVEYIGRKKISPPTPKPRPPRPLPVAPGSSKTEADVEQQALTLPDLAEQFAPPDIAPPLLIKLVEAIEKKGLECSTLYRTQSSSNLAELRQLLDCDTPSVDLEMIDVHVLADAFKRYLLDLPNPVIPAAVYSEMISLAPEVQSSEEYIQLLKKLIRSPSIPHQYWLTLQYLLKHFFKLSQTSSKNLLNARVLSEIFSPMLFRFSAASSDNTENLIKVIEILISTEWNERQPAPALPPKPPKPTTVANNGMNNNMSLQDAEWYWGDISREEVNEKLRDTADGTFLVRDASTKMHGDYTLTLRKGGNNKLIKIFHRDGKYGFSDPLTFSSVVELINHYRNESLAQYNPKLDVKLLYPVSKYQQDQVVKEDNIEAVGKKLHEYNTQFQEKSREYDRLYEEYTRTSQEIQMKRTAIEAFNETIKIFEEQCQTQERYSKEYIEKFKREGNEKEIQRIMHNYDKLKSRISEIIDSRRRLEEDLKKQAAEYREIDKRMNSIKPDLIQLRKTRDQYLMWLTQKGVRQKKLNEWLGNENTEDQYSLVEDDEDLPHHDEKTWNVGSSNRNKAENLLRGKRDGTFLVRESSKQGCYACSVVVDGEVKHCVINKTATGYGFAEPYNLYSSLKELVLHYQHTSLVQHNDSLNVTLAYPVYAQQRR

PI3K β (p110β/p85α) = biological target: T2, PI3K β (p110β/p85α) (Homo sapiens, UniProt P42338); test: PI 3-Kinase (human) HTRF assay, PI3K β; details: read-out: PI3K β IC50
T2 construct: purchased Upstate / Millipore Corporation
T2 sequence (P42338 whole entry): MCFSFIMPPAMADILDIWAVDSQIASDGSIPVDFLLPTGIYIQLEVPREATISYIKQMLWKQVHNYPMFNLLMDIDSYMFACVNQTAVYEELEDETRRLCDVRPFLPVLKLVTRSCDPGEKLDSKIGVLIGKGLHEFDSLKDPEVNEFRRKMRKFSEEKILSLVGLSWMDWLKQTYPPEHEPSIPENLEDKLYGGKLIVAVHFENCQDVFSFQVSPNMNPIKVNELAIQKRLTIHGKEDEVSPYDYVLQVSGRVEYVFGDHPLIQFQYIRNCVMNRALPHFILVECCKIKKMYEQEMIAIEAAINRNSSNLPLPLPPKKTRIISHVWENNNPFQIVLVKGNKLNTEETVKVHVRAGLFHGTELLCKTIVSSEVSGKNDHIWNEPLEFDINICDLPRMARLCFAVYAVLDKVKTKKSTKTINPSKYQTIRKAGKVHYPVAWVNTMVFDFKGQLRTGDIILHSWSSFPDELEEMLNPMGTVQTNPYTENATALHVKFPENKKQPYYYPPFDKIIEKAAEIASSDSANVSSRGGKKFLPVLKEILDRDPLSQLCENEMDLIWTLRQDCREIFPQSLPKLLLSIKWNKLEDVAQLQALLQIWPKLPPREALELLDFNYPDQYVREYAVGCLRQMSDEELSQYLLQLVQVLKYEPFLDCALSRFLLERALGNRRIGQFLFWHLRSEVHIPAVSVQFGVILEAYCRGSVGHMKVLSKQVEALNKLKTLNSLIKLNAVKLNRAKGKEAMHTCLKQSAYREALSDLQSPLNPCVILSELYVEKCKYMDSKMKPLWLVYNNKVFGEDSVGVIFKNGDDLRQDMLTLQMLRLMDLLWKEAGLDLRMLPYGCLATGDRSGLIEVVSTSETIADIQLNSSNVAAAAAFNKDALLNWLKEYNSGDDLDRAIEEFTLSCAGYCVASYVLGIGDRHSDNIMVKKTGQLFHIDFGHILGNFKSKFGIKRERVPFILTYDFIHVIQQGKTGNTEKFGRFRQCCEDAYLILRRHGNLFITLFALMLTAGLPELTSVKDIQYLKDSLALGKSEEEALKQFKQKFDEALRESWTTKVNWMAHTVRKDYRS
T2 sequence (P27986 whole entry partner): as the sequence (P27986 whole entry partner) above

PI3K δ = biological target: T3, PI3K δ (Homo sapiens, UniProt O00329); test: PI 3-Kinase (human) HTRF assay, PI3K δ
T3 construct: purchased Upstate / Millipore Corporation
T3 sequence (O00329 whole entry): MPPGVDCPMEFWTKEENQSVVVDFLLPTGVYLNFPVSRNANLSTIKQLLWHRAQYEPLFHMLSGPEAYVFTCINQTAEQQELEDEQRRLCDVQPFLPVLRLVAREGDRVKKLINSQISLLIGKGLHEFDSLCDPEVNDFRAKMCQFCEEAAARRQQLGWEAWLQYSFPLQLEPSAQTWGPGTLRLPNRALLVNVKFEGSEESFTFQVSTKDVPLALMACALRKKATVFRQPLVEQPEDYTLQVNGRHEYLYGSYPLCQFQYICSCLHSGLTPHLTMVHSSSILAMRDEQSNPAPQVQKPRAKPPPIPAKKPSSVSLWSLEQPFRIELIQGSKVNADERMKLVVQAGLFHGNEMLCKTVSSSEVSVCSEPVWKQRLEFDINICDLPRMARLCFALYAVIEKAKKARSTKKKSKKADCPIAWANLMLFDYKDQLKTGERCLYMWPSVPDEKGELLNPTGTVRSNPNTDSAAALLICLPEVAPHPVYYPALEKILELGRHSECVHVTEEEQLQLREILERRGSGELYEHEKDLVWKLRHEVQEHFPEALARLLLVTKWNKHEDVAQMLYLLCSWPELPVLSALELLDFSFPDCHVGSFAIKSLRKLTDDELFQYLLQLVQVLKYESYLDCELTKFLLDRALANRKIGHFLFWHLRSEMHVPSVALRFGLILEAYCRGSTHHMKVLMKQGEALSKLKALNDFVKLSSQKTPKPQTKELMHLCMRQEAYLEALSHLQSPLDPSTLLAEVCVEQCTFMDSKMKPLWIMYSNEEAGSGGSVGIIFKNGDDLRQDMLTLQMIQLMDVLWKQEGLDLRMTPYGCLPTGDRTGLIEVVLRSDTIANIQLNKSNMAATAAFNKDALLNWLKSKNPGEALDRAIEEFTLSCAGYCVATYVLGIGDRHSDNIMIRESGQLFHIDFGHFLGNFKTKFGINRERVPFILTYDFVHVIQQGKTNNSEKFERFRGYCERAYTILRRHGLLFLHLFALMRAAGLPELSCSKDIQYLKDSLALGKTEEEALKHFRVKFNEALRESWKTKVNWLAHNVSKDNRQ
T3 sequence (P27986 whole entry partner): as the sequence (P27986 whole entry partner) above
Method: Briefly, the assay is a time resolved FRET assay that indirectly measures PIP3 product formed by the activity of a PI3-K. The kinase reaction is performed in a microtiter plate (e.g., a 384 well microtiter plate). The total reaction volume is approximately 20 ul per well. In the first step, each well receives 2 ul of test compound in 20% dimethylsulphoxide resulting in a 2% DMSO final concentration. […] The plate is sealed and incubated for 15 minutes at room temperature. […] The plate is sealed and incubated for 1 hour at room temperature. The reaction is stopped by adding 5 ul of Stop Solution per well and then 5 ul of Detection Mix is added per well. The plate is sealed, incubated for 1 hour at room temperature, and then read on an appropriate plate reader. Data is analyzed and IC50s are generated using GraphPad Prism 5.

PI3K γ (p110γ) = biological target: T4, PI3K γ (p110γ) (Homo sapiens, UniProt P48736); test: PI 3-Kinase (human) HTRF assay, PI3K γ; details: for pIC50: read-out: PI3K γ IC50
T4 construct: purchased Upstate / Millipore Corporation
T4 sequence (P48736 whole entry): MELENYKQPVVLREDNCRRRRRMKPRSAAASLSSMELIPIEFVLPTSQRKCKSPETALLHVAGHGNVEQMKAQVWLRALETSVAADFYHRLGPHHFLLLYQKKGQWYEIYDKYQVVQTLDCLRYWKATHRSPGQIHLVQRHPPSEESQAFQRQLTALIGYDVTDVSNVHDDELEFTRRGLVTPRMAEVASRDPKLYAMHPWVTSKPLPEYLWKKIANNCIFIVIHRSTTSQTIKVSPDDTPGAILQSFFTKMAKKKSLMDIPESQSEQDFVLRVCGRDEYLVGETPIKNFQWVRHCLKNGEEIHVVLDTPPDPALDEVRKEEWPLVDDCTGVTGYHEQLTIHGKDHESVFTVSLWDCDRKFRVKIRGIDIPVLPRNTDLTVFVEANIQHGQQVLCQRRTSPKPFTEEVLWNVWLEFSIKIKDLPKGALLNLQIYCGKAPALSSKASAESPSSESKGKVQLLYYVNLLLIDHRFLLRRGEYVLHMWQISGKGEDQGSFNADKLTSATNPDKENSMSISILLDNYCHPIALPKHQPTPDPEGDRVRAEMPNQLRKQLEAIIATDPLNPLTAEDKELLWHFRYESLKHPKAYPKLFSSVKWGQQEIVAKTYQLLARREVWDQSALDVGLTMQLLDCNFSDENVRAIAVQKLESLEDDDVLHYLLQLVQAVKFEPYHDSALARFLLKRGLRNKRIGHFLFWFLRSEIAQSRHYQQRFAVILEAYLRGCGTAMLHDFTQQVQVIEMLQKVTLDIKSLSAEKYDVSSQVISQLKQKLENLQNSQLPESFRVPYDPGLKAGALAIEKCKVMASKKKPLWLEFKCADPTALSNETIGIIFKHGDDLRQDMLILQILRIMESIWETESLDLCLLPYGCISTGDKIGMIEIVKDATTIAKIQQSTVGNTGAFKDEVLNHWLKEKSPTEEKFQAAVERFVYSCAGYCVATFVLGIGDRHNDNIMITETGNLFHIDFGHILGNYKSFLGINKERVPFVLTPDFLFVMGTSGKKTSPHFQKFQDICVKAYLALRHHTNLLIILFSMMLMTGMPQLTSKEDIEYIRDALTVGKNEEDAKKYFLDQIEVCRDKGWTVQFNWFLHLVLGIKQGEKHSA

Structure (SMILES) | pIC50 (PI3K α (p110α/p85α)) | pIC50 (PI3K β (p110β/p85α)) | pIC50 (PI3K δ; read-out: PI3K δ IC50) | pIC50 (PI3K γ (p110γ)) | pIC50 (PI3K δ) | IC50 (PI3K γ (p110γ); PI3K γ IC50 (nM)) [nM]
CN1CCN(c2cnc3ccc(-c4ccc5sc(N)nc5c4)cc3n2)CC1 [Compound 127] | > 6.00 | > 7.00 | < 5.00 | > 5.00 |  | 
C[C@@H]1CN(c2cnc3ccc(-c4ccc5oc(N)nc5c4)cc3n2)C[C@H](C)O1 [Compound 132] | > 6.00 | < 5.00 | < 5.00 | > 5.00 |  | 
CN1CCCN(c2cnc3ccc(-c4ccc5oc(N)nc5c4)cc3n2)CC1 [Compound 136] | > 6.00 | > 6.00 | < 5.00 | > 5.00 |  | 
CN1CCCN(C(=O)c2cnc3ccc(-c4ccc5oc(N)nc5c4)cn23)CC1 [Compound 140] | > 6.00 | > 5.00 | < 5.00 | < 5.00 |  | 
CCN1CCN(C(=O)c2cnc3ccc(-c4ccc5oc(N)nc5c4)cn23)CC1 [Compound 141] | > 6.00 | < 5.00 | < 5.00 | > 5.00 |  | 
CC1CN(C(=O)c2cnc3ccc(-c4ccc5oc(N)nc5c4)cn23)CC(C)N1 (stereo not shown) [Compound 142] | > 5.00 | < 5.00 | < 5.00 | < 5.00 |  | 
CN1CCN(C(=O)c2cnc3ccc(-c4ccc5nc(N)sc5c4)cn23)CC1 [Compound 146] | > 5.00 | > 5.00 | < 5.00 | < 5.00 |  | 
CC(=O)NC1CCN(C(=O)c2cnc3ccc(-c4ccc5oc(N)nc5c4)cn23)CC1 [Compound 147] | > 6.00 | > 5.00 | > 5.00 | > 5.00 |  | 
Nc1nc2cc(-c3ccc4ncc(C(=O)N5CCN(CCO)CC5)n4c3)ccc2o1 [Compound 148] | > 7.00 | < 5.00 | < 5.00 | > 5.00 |  | 
Nc1nc2cc(-c3ccc4ncc(-c5ccnc(N6CCOCC6)c5)nc4c3)ccc2o1 [Compound 150] | > 6.00 | < 5.00 | < 5.00 | < 5.00 |  | 
CCN1CCN(c2cnc3ccc(-c4ccc5oc(N)nc5c4)cc3n2)CC1 [Compound 152] | > 7.00 | > 7.00 | > 5.00 | > 6.00 |  | 
Nc1nc2cc(-c3ccc4ncc(N5CCN(CC6CC6)CC5)nc4c3)ccc2o1 [Compound 153] | > 7.00 | > 7.00 | > 6.00 | > 6.00 |  | 
CNC(=O)N1CCN(c2cnc3ccc(-c4ccc5oc(N)nc5c4)cc3n2)CC1 [Compound 154] | > 7.00 | > 6.00 | > 5.00 | > 7.00 |  | 
CN1CCC(N(C)c2ncnc3ccc(-c4ccc5oc(N)nc5c4)cc23)CC1 [Compound 155] | > 7.00 | > 7.00 |  |  | > 6.00 | < 100
CN1CCN(C(=O)c2cnc3ccc(-c4ccc5oc(N)nc5c4)cc3n2)CC1 [Compound 157] | > 5.00 | < 5.00 | < 5.00 | < 5.00 |  | 
Nc1nc2cc(-c3ccc4ncc(C(=O)N5CCOCC5)nc4c3)ccc2o1 [Compound 158] | > 5.00 | < 5.00 | < 5.00 | < 5.00 |  | 
CN1CCC(NC(=O)c2cnc3ccc(-c4ccc5oc(N)nc5c4)cn23)CC1 [Compound 159] | > 7.00 | > 6.00 | > 7.00 | > 6.00 |  | 
CC(C)N1CCN(C(=O)c2cnc3ccc(-c4ccc5oc(N)nc5c4)cn23)CC1 [Compound 160] | > 7.00 | > 5.00 | < 5.00 | < 5.00 |  | 
Nc1nc2cc(-c3ccc4ncc(C(=O)N5CCC(O)CC5)n4c3)ccc2o1 [Compound 162] | > 6.00 | < 5.00 | < 5.00 | > 5.00 |  | 
Nc1nc2cc(-c3ccc4ncc(C(=O)N5CCC(N6CCOCC6)CC5)n4c3)ccc2o1 [Compound 163] | > 6.00 | > 5.00 | > 5.00 | > 5.00 |  | 
CC1CN(C(=O)c2cnc3ccc(-c4ccc5oc(N)nc5c4)cn23)CCN1 (stereo not shown) [Compound 164] | > 6.00 | > 6.00 | < 5.00 | < 5.00 |  | 
CN1CCC(N(C)C(=O)c2cnc3ccc(-c4ccc5oc(N)nc5c4)cn23)CC1 [Compound 165] | > 6.00 | > 5.00 | > 5.00 | < 5.00 |  | 
CN(CCN1CCOCC1)c1cnc2ccc(-c3ccc4oc(N)nc4c3)cc2n1 [Compound 166] | > 6.00 | > 5.00 | < 5.00 | > 5.00 |  | 
Nc1nc2cc(-c3ccc4ncc(-c5ccc(N6CCOCC6)nc5)nc4c3)ccc2o1 [Compound 167] | > 5.00 | < 5.00 | < 5.00 | < 5.00 |  | 
Nc1nc2cc(-c3ccc4ncc(N5CCC(N)CC5)nc4c3)ccc2o1 [Compound 168] | > 7.00 | > 6.00 | > 5.00 | < 5.00 |  | 
